Measured values taken from US12611387B2, “Compound and composition for inducing neuroprotection” (REST THERAPEUTICS, priority 2020, dated 2026).

Experiments:
[1] = tested on: Aβ25-35 oligomer-intoxicated mice; assay: Object recognition test, symptomatic treatment; format: in vivo; settings: symptomatic design (not shown)
Description: (§1) The test compounds were tested for their ability to decrease the cognitive symptoms of Aβ25-35 oligomer-induced neurodegeneration, i.e. their ability to provide symptomatic anti-amnestic treatment (FIGS. 1A and 1B). In brief, to test the symptomatic effect of the test compounds, they were administered 8 days after the icy injection of the Aβ25-35 oligomers, 30 minutes before the YMT and PAT memory tests were conducted or 30 minutes before the test, but after the training session, in the case of the MWT or ORT (FIG. 1A). The Hamlet Test® (FIG. 1B) involves a 2-week training session (4 hr/day) followed by a test (max. 10 min) under water deprivation conditions and under normal conditions; the Aβ25-35 peptide is injected after this first test. After one week, the compounds are administered and a second test under water deprivation conditions and under normal conditions is performed 30 min after injection. […]
This test is used to assess recognition memory abilities (Rodriguez Cruz et al., 2017; Maurice et al., 2019). […] The exploratory behaviour, activity and position of the animal's nose were recorded for 10 minutes (Nosetrack® software, Viewpoint, Lissieu, France). The number of contacts with the objects and the duration thereof were measured. […] The exploratory behaviour of each mouse was then also recorded for 10 minutes. […]
An exploration index was calculated using to the following formula: […]

[2] = tested on: Aβ25-35 oligomer-intoxicated mice; assay: Morris water maze, symptomatic treatment; format: in vivo; settings: symptomatic design (not shown)
Description: as §1, with “test.” for “test. After one week, the compounds are administered and a second test under water deprivation conditions and under normal conditions is performed 30 min after injection.”
This test is used to assess long-term spatial reference memory. […] The animals' swimming behaviour was recorded (Videotrack® software, Viewpoint), and the trajectories, latencies and distances covered were measured. […] Median latency (time taken to find the platform) was calculated for each training day and expressed for the group as the mean latency±standard deviation. […] Each mouse was left in the water for 60 seconds and its swimming behaviour was recorded. The time spent in the north-eastern quadrant, which originally contained the platform (T), was measured and compared to the average time spent in the other quadrants (o).

[3] = tested on: Aβ25-35 oligomer-intoxicated mice; assay: Hamlet test, symptomatic treatment; format: in vivo, C57Bl/6j mice; settings: 0.3 mg/Kg, symptomatic design
Description: The test compounds were tested for their ability to decrease the cognitive symptoms of Aβ25-35 oligomer-induced neurodegeneration, i.e. their ability to provide symptomatic anti-amnestic treatment (FIGS. 1A and 1B). In brief, to test the symptomatic effect of the test compounds, they were administered 8 days after the icy injection of the Aβ25-35 oligomers, 30 minutes before the YMT and PAT memory tests were conducted or 30 minutes before the test, but after the training session, in the case of the MWT or ORT (FIG. 1A). […]
The Hamlet Test® device, with a diameter of 1.2 m, comprises a central square (the agora) and streets that radiate out therefrom and lead to functionalised compartments or houses that allow a physiological function to be met or that enrich the environment. The walls and streets of the hamlet were made of infrared-transparent PVC, the test room was uniformly lit (200 Lux), infrared diodes were placed under the floor of the hamlet and an infrared camera recorded the behaviour of the animals. […]
This test was described by Crouzier et al. (2018 a and b). […] The exploratory behaviour was recorded alongside the time taken to find the Drink house and the number of errors made (number of entries into a street not leading to the Drink house). […] A disorientation index (DI) was calculated for each variable (time to find the drink house, number of errors): […]

`NC12CC3CC(C1)CC(CCF)(C3)C2` [FENM, 3-(2-fluoroethyl)adamantan-1-amine] was tested, and the “anti-amnestic effect in object recognition” value [1] was “confirmed”, the “anti-amnestic effect in Morris water maze” value [2] was “confirmed” and the “disorientation index calculated for errors” value [3] was “reduced to the level of those of the untreated, non-intoxicated mice”. The “disorientation index calculated for latency” value [3] was “reduced to the level of those of the untreated, non-intoxicated mice”.
